Experimental data reported in PubChem BioAssay AID1259407 (Chemical Carcinogenesis Research Information System (CCRIS), 2018).
The source made the active and inactive calls. How the calls were made is not given here.

System: CCRIS mutagenicity, Ames/micronucleus/aberration tests
Experiment: CCRIS mutagenicity studies
[1] = Test System: AMES SALMONELLA TYPHIMURIUM, Strain/Indicator: TA98, Metabolic Activation: NONE, Method: PREINCUBATION
[2] = Test System: AMES SALMONELLA TYPHIMURIUM, Strain/Indicator: TA100, Metabolic Activation: NONE, Method: PREINCUBATION
[3] = Test System: AMES SALMONELLA TYPHIMURIUM, Strain/Indicator: TA1535, Metabolic Activation: NONE, Method: PREINCUBATION
[4] = Test System: MOUSE LYMPHOMA, Strain/Indicator: L5178Y (TK+/TK-), Metabolic Activation: RAT, LIVER, S-9, AROCLOR 1254, Method: SUSPENSION/PLATE

Measured: mutagenic call

S=C(NC1CCCCC1)NC1CCCCC1
inactive: Test System: AMES SALMONELLA TYPHIMURIUM, Strain/Indicator: TA97, Metabolic Activation: HAMSTER, LIVER, S-9, AROCLOR 1254 (10 OR 30%), Method: PREINCUBATION inactive; negative | Test System: AMES SALMONELLA TYPHIMURIUM, Strain/Indicator: TA97, Metabolic Activation: NONE, Method: PREINCUBATION inactive; negative | Test System: AMES SALMONELLA TYPHIMURIUM, Strain/Indicator: TA97, Metabolic Activation: RAT, LIVER, S-9, AROCLOR 1254 (10%), Method: PREINCUBATION inactive; negative | Test System: AMES SALMONELLA TYPHIMURIUM, Strain/Indicator: TA97, Metabolic Activation: RAT, LIVER, S-9, AROCLOR 1254 (30%), Method: PREINCUBATION inactive; negative | Test System: AMES SALMONELLA TYPHIMURIUM, Strain/Indicator: TA98, Metabolic Activation: HAMSTER, LIVER, S-9, AROCLOR 1254 (10 OR 30%), Method: PREINCUBATION inactive; negative | [1] inactive; negative | Test System: AMES SALMONELLA TYPHIMURIUM, Strain/Indicator: TA98, Metabolic Activation: RAT, LIVER, S-9, AROCLOR 1254 (10 OR 30%), Method: PREINCUBATION inactive; negative | Test System: AMES SALMONELLA TYPHIMURIUM, Strain/Indicator: TA100, Metabolic Activation: HAMSTER, LIVER, S-9, AROCLOR 1254 (10 OR 30%), Method: PREINCUBATION inactive; negative | [2] inactive; negative | Test System: AMES SALMONELLA TYPHIMURIUM, Strain/Indicator: TA100, Metabolic Activation: RAT, LIVER, S-9, AROCLOR 1254 (10 OR 30%), Method: PREINCUBATION inactive; negative | Test System: AMES SALMONELLA TYPHIMURIUM, Strain/Indicator: TA1535, Metabolic Activation: HAMSTER, LIVER, S-9, AROCLOR 1254 (10 OR 30%), Method: PREINCUBATION inactive; negative | [3] inactive; negative | Test System: AMES SALMONELLA TYPHIMURIUM, Strain/Indicator: TA1535, Metabolic Activation: RAT, LIVER, S-9, AROCLOR 1254 (10 OR 30%), Method: PREINCUBATION inactive; negative | Test System: AMES SALMONELLA TYPHIMURIUM, Strain/Indicator: TA1537, Metabolic Activation: HAMSTER, LIVER, S-9, AROCLOR 1254 (10%), Method: PREINCUBATION inactive; negative | Test System: E. COLI, Strain/Indicator: WP2 UVRA, Metabolic Activation: HAMSTER, LIVER, S-9, AROCLOR 1254, Method: STANDARD PLATE inactive; negative | Test System: E. COLI, Strain/Indicator: WP2 UVRA, Metabolic Activation: HAMSTER, LIVER, S-9, Method: STANDARD PLATE inactive; negative | Test System: E. COLI, Strain/Indicator: WP2 UVRA, Metabolic Activation: MOUSE, LIVER, S-9, AROCLOR 1254, Method: STANDARD PLATE inactive; negative | Test System: E. COLI, Strain/Indicator: WP2 UVRA, Metabolic Activation: MOUSE, LIVER, S-9, Method: STANDARD PLATE inactive; negative | Test System: E. COLI, Strain/Indicator: WP2 UVRA, Metabolic Activation: NONE, Method: STANDARD PLATE inactive; negative | Test System: E. COLI, Strain/Indicator: WP2 UVRA, Metabolic Activation: RAT, LIVER, S-9, AROCLOR 1254, Method: STANDARD PLATE inactive; negative | Test System: E. COLI, Strain/Indicator: WP2 UVRA, Metabolic Activation: RAT, LIVER, S-9, Method: STANDARD PLATE inactive; negative | [4] inactive; negative

O=[N+]([O-])/C(Br)=C\c1ccccc1
inactive: Test System: AMES SALMONELLA TYPHIMURIUM, Strain/Indicator: TA98, Metabolic Activation: HAMSTER, LIVER, S-9, AROCLOR 1254, Method: STANDARD PLATE inactive; negative | Test System: AMES SALMONELLA TYPHIMURIUM, Strain/Indicator: TA98, Metabolic Activation: NONE, Method: STANDARD PLATE inactive; negative | Test System: AMES SALMONELLA TYPHIMURIUM, Strain/Indicator: TA98, Metabolic Activation: RAT, LIVER, S-9, AROCLOR 1254, Method: STANDARD PLATE inactive; negative | Test System: AMES SALMONELLA TYPHIMURIUM, Strain/Indicator: TA100, Metabolic Activation: HAMSTER, LIVER, S-9, AROCLOR 1254, Method: STANDARD PLATE inactive; negative | Test System: AMES SALMONELLA TYPHIMURIUM, Strain/Indicator: TA100, Metabolic Activation: NONE, Method: STANDARD PLATE inactive; negative | Test System: AMES SALMONELLA TYPHIMURIUM, Strain/Indicator: TA100, Metabolic Activation: RAT, LIVER, S-9, AROCLOR 1254, Method: STANDARD PLATE inactive; negative | Test System: AMES SALMONELLA TYPHIMURIUM, Strain/Indicator: TA1535, Metabolic Activation: HAMSTER, LIVER, S-9, AROCLOR 1254, Method: STANDARD PLATE inactive; negative | Test System: AMES SALMONELLA TYPHIMURIUM, Strain/Indicator: TA1535, Metabolic Activation: NONE, Method: STANDARD PLATE inactive; negative | Test System: AMES SALMONELLA TYPHIMURIUM, Strain/Indicator: TA1535, Metabolic Activation: RAT, LIVER, S-9, AROCLOR 1254, Method: STANDARD PLATE inactive; negative | Test System: AMES SALMONELLA TYPHIMURIUM, Strain/Indicator: TA1537, Metabolic Activation: HAMSTER, LIVER, S-9, AROCLOR 1254, Method: STANDARD PLATE inactive; negative | Test System: AMES SALMONELLA TYPHIMURIUM, Strain/Indicator: TA1537, Metabolic Activation: NONE, Method: STANDARD PLATE inactive; negative | Test System: AMES SALMONELLA TYPHIMURIUM, Strain/Indicator: TA1537, Metabolic Activation: RAT, LIVER, S-9, AROCLOR 1254, Method: STANDARD PLATE inactive; negative | Test System: AMES SALMONELLA TYPHIMURIUM, Strain/Indicator: TA1538, Metabolic Activation: HAMSTER, LIVER, S-9, AROCLOR 1254, Method: STANDARD PLATE inactive; negative | Test System: AMES SALMONELLA TYPHIMURIUM, Strain/Indicator: TA1538, Metabolic Activation: NONE, Method: STANDARD PLATE inactive; negative | Test System: AMES SALMONELLA TYPHIMURIUM, Strain/Indicator: TA1538, Metabolic Activation: RAT, LIVER, S-9, AROCLOR 1254, Method: STANDARD PLATE inactive; negative | Test System: MOUSE LYMPHOMA, Strain/Indicator: L5178Y (TK+/TK-), Metabolic Activation: NONE, Method: SUSPENSION/PLATE inactive; negative. reevaluation of results: negative | [4] inactive; negative. reevaluation of results: negative

O.O.O.O.O.O.O=[N+]([O-])O.O=[N+]([O-])O.[Zn]
inactive: [1] inactive; negative | Test System: AMES SALMONELLA TYPHIMURIUM, Strain/Indicator: TA98, Metabolic Activation: RAT LIVER S-9, PHENOBARBITAL AND BETA-NAPHTHOFLAVONE, Method: PREINCUBATION inactive; negative | [2] inactive; negative | Test System: AMES SALMONELLA TYPHIMURIUM, Strain/Indicator: TA100, Metabolic Activation: RAT LIVER S-9, PHENOBARBITAL AND BETA-NAPHTHOFLAVONE, Method: PREINCUBATION inactive; negative | [3] inactive; negative | Test System: AMES SALMONELLA TYPHIMURIUM, Strain/Indicator: TA1535, Metabolic Activation: RAT LIVER S-9, PHENOBARBITAL AND BETA-NAPHTHOFLAVONE, Method: PREINCUBATION inactive; negative | Test System: AMES SALMONELLA TYPHIMURIUM, Strain/Indicator: TA1537, Metabolic Activation: NONE, Method: PREINCUBATION inactive; negative | Test System: AMES SALMONELLA TYPHIMURIUM, Strain/Indicator: TA1537, Metabolic Activation: RAT LIVER S-9, PHENOBARBITAL AND BETA-NAPHTHOFLAVONE, Method: PREINCUBATION inactive; negative | Test System: AMES SALMONELLA TYPHIMURIUM, Strain/Indicator: TA1538, Metabolic Activation: NONE, Method: PREINCUBATION inactive; negative | Test System: AMES SALMONELLA TYPHIMURIUM, Strain/Indicator: TA1538, Metabolic Activation: RAT LIVER S-9, PHENOBARBITAL AND BETA-NAPHTHOFLAVONE, Method: PREINCUBATION inactive; negative | Test System: E.COLI, Strain/Indicator: WP2UVRA, Metabolic Activation: NONE, Method: PREINCUBATION inactive; negative | Test System: E.COLI, Strain/Indicator: WP2UVRA, Metabolic Activation: RAT LIVER S-9, PHENOBARBITAL AND BETA-NAPHTHOFLAVONE, Method: PREINCUBATION inactive; negative
